Tests used:
Mu-type opioid receptor = Mu-type opioid receptor (Cavia porcellus, UniProt P97266); experiment: The compound was evaluated for the binding affinity towards mu-opioid receptor by displacement of [3H]DAMGO radioligand from guinea pig ileum; type: tissue-based
[1] = target: Delta-type opioid receptor (Mus musculus, UniProt P32300); experiment: The compound was evaluated for the binding affinity towards delta-opioid receptor by displacement of [3H]p-CI-DPDPE radioligand from mouse vas deferens; type: tissue-based
Sequence of Delta-type opioid receptor (P32300 whole entry): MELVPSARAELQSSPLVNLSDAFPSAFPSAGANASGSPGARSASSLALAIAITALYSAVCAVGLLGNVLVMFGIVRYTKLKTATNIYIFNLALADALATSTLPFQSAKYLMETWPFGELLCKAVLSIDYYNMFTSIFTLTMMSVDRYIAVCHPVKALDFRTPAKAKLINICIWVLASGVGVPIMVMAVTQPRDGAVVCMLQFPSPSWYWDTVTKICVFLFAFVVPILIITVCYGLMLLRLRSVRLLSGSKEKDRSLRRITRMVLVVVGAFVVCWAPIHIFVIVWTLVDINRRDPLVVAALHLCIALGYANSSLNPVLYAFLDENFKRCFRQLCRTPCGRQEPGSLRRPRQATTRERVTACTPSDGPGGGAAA

Sequence of Mu-type opioid receptor (P97266 whole entry): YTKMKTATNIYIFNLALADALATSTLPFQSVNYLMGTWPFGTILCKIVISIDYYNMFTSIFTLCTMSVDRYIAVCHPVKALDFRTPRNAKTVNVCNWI

Compound	IC50 (Mu-type opioid receptor) [µM]	IC50 [1] [nM]	Ki (Mu-type opioid receptor) [µM]	Ki [1] [nM]
Cc1cc(O)cc(C)c1C(C)C(NC(=O)OC(C)(C)C)C(=O)N1Cc2ccccc2C[C@H]1C(=O)OCc1ccccc1 (some centres not stated)	8.4	19		
Cc1cc(O)cc(C)c1[C@@H](C)[C@@H](N)C(=O)N1Cc2ccccc2C[C@H]1C(=O)O	> 80	> 10000		
Cc1cc(O)cc(C)c1[C@H](C)[C@@H](N)C(=O)N1Cc2ccccc2C[C@H]1C(=O)O	> 80	> 10000		
Cc1cc(O)cc(C)c1[C@@H](C)[C@H](N)C(=O)N1Cc2ccccc2C[C@H]1C(=O)O	35	9.3		
Cc1cc(O)cc(C)c1[C@H](C)[C@H](N)C(=O)N1Cc2ccccc2C[C@H]1C(=O)O	> 80	124		
NC(Cc1ccc(O)cc1)C(=O)N1Cc2ccccc2C[C@H]1C(=O)O (single isomer, unassigned)			28.4	191

From ChEMBL document CHEMBL1152040, “The stereochemical requirements of the novel -opioid selective dipeptide antagonist TMT-Tic” (Bioorg Med Chem Lett, 1997)
